As usually defined, the IC50 is the concentration that inhibits the measured activity by half. What is called Ki is a measure of affinity in units of concentration, obtained from inhibition or displacement.

Structures are written as SMILES.

Test [1] addresses T1, M5 muscarinic receptor (Homo sapiens, UniProt P08912).
T1 construct: expressed in transfected cells; host or cells: CHO cells, transiently co-transfected with pCMV R-CEPIAer
T1 sequence (P08912 1-532): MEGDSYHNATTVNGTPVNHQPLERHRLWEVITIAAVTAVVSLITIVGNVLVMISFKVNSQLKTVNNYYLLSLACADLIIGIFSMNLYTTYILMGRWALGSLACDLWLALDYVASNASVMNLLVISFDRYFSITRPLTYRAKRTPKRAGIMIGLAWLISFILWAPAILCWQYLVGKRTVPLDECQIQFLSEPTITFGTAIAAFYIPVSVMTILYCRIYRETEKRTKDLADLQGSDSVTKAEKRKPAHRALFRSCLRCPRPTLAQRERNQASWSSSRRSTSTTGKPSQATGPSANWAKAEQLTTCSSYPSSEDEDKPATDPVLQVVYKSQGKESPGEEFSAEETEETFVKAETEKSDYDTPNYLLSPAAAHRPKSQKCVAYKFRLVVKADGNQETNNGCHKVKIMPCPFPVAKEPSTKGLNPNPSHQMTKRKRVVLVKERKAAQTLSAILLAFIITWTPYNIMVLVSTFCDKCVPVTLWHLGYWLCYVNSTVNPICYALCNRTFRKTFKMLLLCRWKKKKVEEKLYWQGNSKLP
Briefly: R-CEPIAer ER calcium assay, CHO cells transiently transfected with M5 receptor. It is filed as cell-based. On the procedure:
[Worded in the source for another target; used here, by the source, with some conditions changed.] The binding of antagonists to Gq-coupled receptors was determined by measuring IP3-mediated calcium depletion from the endoplasmic reticulum (ER). This was accomplished using CHO-K1 cells stably transfected with human M3 muscarinic acetylcholine receptor (CEM3000000, cDNA Resource Center, Bloomsburg University) and R-CEPIAer, a low affinity ER-targeted calcium indicator fluorescent protein ([Suzuki et al., 2014]). R-CEPIAer reporting of ER calcium concentration was assessed using 564 nm excitation light (>590 long-pass emission) at 20 second intervals on a Nikon swept-field confocal microscope using slit-scan mode, 2x2 Binning, and 100 millisecond frames. F/Fmax was fluorescence intensity normalized to maximal fluorescence intensity during the experiment. The response of cells to Gq-coupled receptor agonist were measured as the change in F/Fmax (ΔF/Fmax) from preagonist value to fluorescence minimum during agonist application (that occurs by IP3-mediated ER calcium depletion). […] Perfusion of each agonist application was for 2 min, while the antagonist overlapped and preceded the second agonist application by 3 min. […] IC50 was calculated by assaying fractional inhibition using a dose-response of antagonist concentrations (i.e. Figure 1D ). […]

The test system of test [2] is bladder. Put plainly: Isometric bladder ring tension measurement. Further details: species or system mouse. The conditions noted are these: 3.5 μM; 0.5 μM carbachol. On the procedure:
Mice used in these studies were BALB/C mice from Jackson Labs. All animal procedures were reviewed and approved by the University of Texas Health Science Center at San Antonio Institutional Animal Care and Use Committee. For tracheal constriction studies, animals were deeply anesthetized with isoflurane and then sacrificed by cervical dislocation. Isometric tracheal contraction measurements were performed as previously described ([Semenov et al., 2012]). Trachea were removed and surrounding tissues dissected in ice-cold physiologic saline solution (PSS) consisting of 119 mM NaCl, 4.7 mM KCl, 2.0 mM CaCl2, 1.0 mM KH2PO4, 1.17 mM MgSO4, 18 mM NaHCO3, 0.026 mM EDTA, 11 mM glucose, and 12.5 mM sucrose. Trachea were cut below the pharynx and above the primary bronchus bifurcation. Two metal wires, attached to a force transducer and micrometer (Radnoti, LLC), were threaded into the lumen of the trachea. Trachea were placed into an oxygenated organ bath (95% O2, 5% CO2), at 37°C, pH 7.35 (after bubbling with 95% O2–5% CO2). Tracheal resting tension was readjusted to 1 gram over 1 h and then challenged with 67 mM potassium PSS with NaCl adjusted to 56.7 mM to maintain proper osmolarity (KPS). Trachea were challenged two or more times until reproducible contractile responses were achieved. All subsequent experimental drug responses were normalized to the KPS response. […]

The subject of test [3] is human primary bronchial smooth muscle cells stably transfected with the human M3 muscarinic receptor. Put plainly: Cytosolic calcium imaging in human bronchial smooth muscle cells. It is filed as cell-based. How it is done:
TSM cells were placed on a coverslip in a 1 ml perfusion chamber on an inverted microscope and incubated with 20 μM Cal-520 AM dye (AAT Bioquest, Sunnyvale, California, USA) in 0.2% Pluronic F-127 and 1 mM probenecid in HBSS at room temperature for 30 min. The chamber was fitted with a top adaptor and coverslip (Warner Instruments, RC37WC) to establish a closed perfusion chamber. The cells were imaged at 20 second intervals using 488 nm excitation on a Nikon swept-field confocal microscope using slit-scan mode, 2×2 Binning, and 100 millisecond frames.
Due to the loss of functional muscarinic receptors in primary bronchial smooth muscle cells in culture, calcium imaging was performed in human primary bronchial smooth muscle cells (ScienCell, passage 3) stably transfected with the human M3 muscarinic receptor. Human M3 receptor transfected clones were stably selected with G418, and individual clones were expanded to a 10 cm dish and frozen into aliquots, and analyzed after a maximum of two additional passages.

Test [4] relates to SK potassium channels. The conditions noted are these: ref Campos Rosa et al., 1996; read-out: IC50, block of SK channels; cited from earlier work.
Test [5] concerns the target SK2. The arrangement: method as in Benton D.C. et al., 2013. As to conditions: 125I-Apamin competition; ref Benton D.C. et al., 2013; read-out: Ki, SK2 channels; cited from earlier work.

`c1cc2cc(c1)C[n+]1ccc(c3ccccc31)NCc1ccc(cc1)CNc1cc[n+](c3ccccc13)C2` [UCL 1684, 6,12,19,20,25,26-Hexahydro-5,27:13,18:21,24-trietheno-11,7-metheno-7H-dibenzo [b,n] [1,5,12,16]tetraazacyclotricosine-5,13-diium dibromide]: the IC50 in test [1] was 520 nM; in test [4], 3 nM. In addition, in test [1] (0.5 μM carbachol), the “Hill slope of inhibition curve, M5 receptor” value was 1.4 ± 0.17. Besides, the “Relaxation response of bladder” value in test [2] amounted to 31.4 ± 8.4. Also, the “Calcium response (integral) to second carbachol relative to first” value in test [3] (3.5 μM UCL 1684, 0.5 μM carbachol, human BSMC) amounted to 0.38 ± 0.10. Further, the activity at 3.5 µM in test [3] (Homo sapiens, BSMC, read-out: CCH-evoked cytosolic calcium, % of control) was 38%. For the same molecule, the Ki in test [5] was 1 nM.
